Laboratory results from patent US11572590B2, “Methods for evaluating tumor cell spheroids using 3D microfluidic cell culture device” (Dana-Farber Cancer Institute, Inc., priority 2017, dated 2023).

Tested on: CT26 MDOTS
Test: Live/dead (AO/PI) imaging of CT26 MDOTS in 3D microfluidic culture
Type: cell-based, murine
Settings: Cmpd1 (1 μM) + αPD-1, 6 days
Protocol: Fresh tumor specimens (murine and human patients) were received in media (DMEM) on ice and minced in a 10 cm dish (on ice) using sterile forceps and scalpel. Minced tumor was resuspended in DMEM ([…], […] sodium pyruvate, 1:100 penicillin-streptomycin) (Corning CellGro, Manassas, Va.) +10% FBS (Gemini Bio-Products, West Sacramento, Calif.), 100 U/mL collagenase type IV (Life Technologies, Carlsbad, Calif.), and 15 mM HEPES (Life Technologies, Carlsbad, Calif.), except for CT26 tumors that were prepared in RPMI. Samples were pelleted and resuspended in 10-20 mL media. Red blood cells were removed from visibly bloody samples using RBC Lysis Buffer (Boston Bio-Products, Ashland, Mass.). […]
Dual labeling was performed by loading microfluidic device with Nexcelom ViaStain™ AO/PI Staining Solution (Nexcelom, CS2-0106). Following incubation with the dyes (20 minutes at room temperature in the dark), images were captured on a Nikon Eclipse 80i fluorescence microscope equipped with Z-stack (Prior) and CoolSNAP CCD camera (Roper Scientific). […] Live and dead cell quantitation was performed by measuring total cell area of each dye. […]

## N#Cc1cc(-c2ncnc(Nc3ccc(N4CCN(C5COC5)CC4)cc3)n2)ccc1OC1CCOCC1 [Compound 1, 5-(4-((4-(4-(oxetan-3-yl)piperazin-1-yl)phenyl)amino)-1,3,5-triazin-2-yl)-2-((tetrahydro-2H-pyran-4-yl)oxy)benzonitrile]
  killing of CT26 MDOTS, ex vivo combination treatment: enhanced killing
